Laboratory results reported in patent publication US11993513B2, “Process for manufacturing an aqueous hydrogen peroxide solution” (SOLVAY SA, priority 2018, dated 2024).

Columns and labels:
Type in all cases: physicochemical
[1] = Density of polar solvents; settings: ambient temperature
[2] = Solubility tests of hydrogenated quinones (QH) in solvent mixtures, synthetic EQ/ETQ working solutions; settings: comparison in words
Experimental: The determination of the QH solubility was performed on synthetic EQ/ETQ working solutions. These quinones mixed in the tested solvents have been hydrogenated to a fixed level and cooled down successively to 3 different temperatures before the measurement (min. 3 hours to stabilize the system between each measurement). The conditions applied for these tests were:
In this figure, Kb stands for the weight partition coefficient of hydrogen peroxide between the water and the working solution (mixture of quinones and organic solvents). It is calculated using the following formula: Kb=(g H2O2/kg aqueous phase)/(g H2O2/kg organic phase)
The maximum solubility of a hydrogenated quinone (QH) in a solvent mixture is directly correlated with the productivity of the working solution. The higher is the QH solubility, the higher will be the theoretical quantity of hydrogen peroxide achievable per kg of WS (Productivity). These theoretical values, designated by the terms “Productivity (gH2O2/kg of WS) measured” in Table 1, were calculated as follows: […]
1 mole (240 g) ETQH (which actually is the QH in our Examples) per kg of WS will produce 1 mole (34 g) of H2O2 per kg of WS.

[3] = Stability of the nitrile solvent during the AO process; settings: nitrile function not protected
Source text: As explained above, the main feature of the invention is the recourse to a mixture of a polar organic solvent and a non-polar organic solvent wherein the polar organic solvent is a substituted cyclohexane carbonitrile. […] The substituent(s) are preferably alkyl groups, preferably methyl and/or ethyl group(s). […] Another alternative would be to use at least one propyl, diethyl, methyl isopropyl, butyl, t-butyle . . . the latter being preferred.

Compound	Density of polar solvents at amb T° [1]	Productivity values compared with sextate or a linear nitrile like decanenitrile [2]	Stability of the molecule during the AO process [3]
CCCCCCCCCC#N [Decanenitrile]	0.83 kg/L		
CC1CCCC(C)(C)C1C#N (centres unmarked) [TMCH-CN, 2,2,6-trimethyl-cyclohexane-carbonitrile]	0.89 kg/L	much higher (almost the double in fact)	
N#CC1CCCCC1 [Unsubstituted cyclohexane carbonitrile, cyclohexane carbonitrile]			undergoes degradation
methyl cyclohexyl acetate [Sextate]	0.94 kg/L		
